# Experimental data reported in ChEMBL document CHEMBL1156394, “Low-density lipoprotein-antioxidant constituents of Saururus chinensis” (J Nat Prod, 2001).
# Test system: Plasma
# Assay: Antioxidant activity assessed as inhibition of LDL oxidation in human plasma
# Format: functional, cell-free
row,IC50,Structure (SMILES)
1,2900 nM,C/C=C/c1ccc(O[C@@H](C)[C@@H](O)c2ccc(O)c(OC)c2)c(OC)c1 [MACHILIN D]
2,1300 nM,CC(C)(Sc1cc(C(C)(C)C)c(O)c(C(C)(C)C)c1)Sc1cc(C(C)(C)C)c(O)c(C(C)(C)C)c1 [PROBUCOL]
3,4300 nM,C/C=C/c1ccc(O[C@@H](C)[C@@H](O)c2ccc(OC)c(OC)c2)c(OC)c1 [VIROLIN]
